These results are taken from US12466809B2, “CDK2/5 degraders and uses thereof” (DANA-FARBER CANCER INSTITUTE, INC., priority 2019, dated 2025).

In one assay the target is CDK5/p25 (Homo sapiens (Human), UniProt Q00535). Nature of the assay: Invitrogen Z'-LYTE kinase assay CDK5/p25 (assay ID 318, Km app, 10-point titration). The assay is classed as biochemical. Conditions: CDK5/p25, Km app ATP. From the text:
(§1) CDK2 and CDK5 IC50 data were attained through the use of Invitrogen™ commercial assays. The method for CDK2 (assay ID: 315, kinase|Z'-LYTE™|CDK2/Cyclin A|Km app) used a 10-point titration. The method for CDK5 (assay ID: 318, kinase|Z'-LYTE™|CDK5/p25|Km app) used a 10-point titration.

Another assay deals with CDK2/Cyclin A (Homo sapiens (Human), UniProt P24941). Description: Invitrogen Z'-LYTE kinase assay CDK2/Cyclin A (assay ID 315, Km app, 10-point titration). The assay is classed as biochemical. Conditions: Km app ATP.
Text: as §1

CDK5/p25, sequence (Q00535 whole entry): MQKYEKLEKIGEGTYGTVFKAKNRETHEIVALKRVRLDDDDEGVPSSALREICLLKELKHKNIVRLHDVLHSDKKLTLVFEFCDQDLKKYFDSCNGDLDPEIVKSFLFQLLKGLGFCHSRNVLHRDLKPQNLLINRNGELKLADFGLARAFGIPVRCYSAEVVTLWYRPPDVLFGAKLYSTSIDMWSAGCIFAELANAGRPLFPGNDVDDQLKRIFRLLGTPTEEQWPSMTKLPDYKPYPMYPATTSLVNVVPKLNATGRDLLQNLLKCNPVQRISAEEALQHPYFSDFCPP
CDK5/p25, sequence (Q15078 99-307 partner): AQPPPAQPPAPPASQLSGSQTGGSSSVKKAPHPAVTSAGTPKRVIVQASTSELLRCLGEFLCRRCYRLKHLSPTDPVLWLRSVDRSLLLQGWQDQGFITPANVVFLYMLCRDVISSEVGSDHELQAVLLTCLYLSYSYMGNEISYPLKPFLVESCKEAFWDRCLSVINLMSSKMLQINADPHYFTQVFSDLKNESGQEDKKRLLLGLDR

As for `NC(=O)c1c(F)cccc1Nc1nc(NC2CCN(S(=O)(=O)CCNC(=O)CCOCCNc3cccc4c3C(=O)N(C3CCC(=O)NC3=O)C4=O)CC2)ncc1Br` (centres unmarked) [Compound 2, 2-((5-bromo-2-((1-((2-(3-(2-((2-(2,6-dioxopiperidin-3-yl)-1,3-dioxoisoindolin-4-yl)amino)ethoxy)propanamido)ethyl)sulfonyl)piperidin-4-yl)amino)pyrimidin-4-yl)amino)-6-fluorobenzamide], the IC50 was 3.8 nM on CDK5/p25 and 5.1 nM against CDK2/Cyclin A.
The corresponding values for `NC(=O)c1c(F)cccc1Nc1nc(NC2CCN(S(=O)(=O)CCNC(=O)CCOCCOCCOc3cccc4c3C(=O)N(C3CCC(=O)NC3=O)C4=O)CC2)ncc1Br` (centres unmarked) [Compound 3, 2-((5-bromo-2-((1-((2-(3-(2-(2-((2-(2,6-dioxopiperidin-3-yl)-1,3-dioxoisoindolin-4-yl)oxy)ethoxy)ethoxy)propanamido)ethyl)sulfonyl)piperidin-4-yl)amino)pyrimidin-4-yl)amino)-6-fluorobenzamide] are 4.8 nM and 4.9 nM.
The corresponding values for `NC(=O)c1c(F)cccc1Nc1nc(NC2CCN(S(=O)(=O)CCNC(=O)CCOCCOCCOCCOCCOCCOCCOCCOCCNc3cccc4c3C(=O)N(C3CCC(=O)NC3=O)C4=O)CC2)ncc1Br` (centres unmarked) [Compound 4, N-(2-((4-((5-bromo-4-((2-carbamoyl-3-fluorophenyl)amino)pyrimidin-2-yl)amino)piperidin-1-yl)sulfonyl)ethyl)-1-((2-(2,6-dioxopiperidin-3-yl)-1,3-dioxoisoindolin-4-yl)amino)-3,6,9,12,15,18,21,24-octaoxaheptacosan-27-amide] are 8.4 nM and 7.3 nM.
The corresponding values for `NC(=O)c1c(F)cccc1Nc1nc(NC2CCN(S(=O)(=O)CCNC(=O)CCCCCCCOc3cccc4c3C(=O)N(C3CCC(=O)NC3=O)C4=O)CC2)ncc1Br` (centres unmarked) [Compound 6, 2-((5-bromo-2-((1-((2-(8-((2-(2,6-dioxopiperidin-3-yl)-1,3-dioxoisoindolin-4-yl)oxy)octanamido)ethyl)sulfonyl)piperidin-4-yl)amino)pyrimidin-4-yl)amino)-6-fluorobenzamide] are 11.8 nM and 17.1 nM.
With `NC(=O)c1c(F)cccc1Nc1nc(NC2CCN(S(=O)(=O)CCNC(=O)CCCCCOc3cccc4c3C(=O)N(C3CCC(=O)NC3=O)C4=O)CC2)ncc1Br` (centres unmarked) [Compound 7, 2-((5-bromo-2-((1-((2-(6-((2-(2,6-dioxopiperidin-3-yl)-1,3-dioxoisoindolin-4-yl)oxy)hexanamido)ethyl)sulfonyl)piperidin-4-yl)amino)pyrimidin-4-yl)amino)-6-fluorobenzamide], the IC50 was determined as 13.7 nM on CDK5/p25 and 20.5 nM against CDK2/Cyclin A.
The matching figures for `NC(=O)c1c(F)cccc1Nc1nc(N[C@@H]2CCCN(S(=O)(=O)CCNC(=O)CCCCCCCCOc3cccc4c3C(=O)N(C3CCC(=O)NC3=O)C4=O)C2)ncc1Br` (stereo partly drawn) [Compound 8, 2-((5-bromo-2-(((3R)-1-((2-(9-((2-(2,6-dioxopiperidin-3-yl)-1,3-dioxoisoindolin-4-yl)oxy)nonanamido)ethyl)sulfonyl)piperidin-3-yl)amino)pyrimidin-4-yl)amino)-6-fluorobenzamide]: 241 nM and 347 nM.
The matching figures for `Cc1ncsc1-c1ccc([C@H](C)NC(=O)[C@@H]2C[C@@H](O)CN2C(=O)[C@@H](NC(=O)CCOCCOCCOCCC(=O)NCCS(=O)(=O)N2CCC(Nc3ncc(Br)c(Nc4cccc(F)c4C(N)=O)n3)CC2)C(C)(C)C)cc1` [Compound 9, (2S,4R)-1-((S)-19-((4-((5-bromo-4-((2-carbamoyl-3-fluorophenyl)amino)pyrimidin-2-yl)amino)piperidin-1-yl)sulfonyl)-2-(tert-butyl)-4,16-dioxo-7,10,13-trioxa-3,17-diazanonadecanoyl)-4-hydroxy-N—((S)-1-(4-(4-methylthiazol-5-yl)phenyl)ethyl)pyrrolidine-2-carboxamide]: 4.1 nM and 7.5 nM.
